Laboratory results: ChEMBL document CHEMBL1201862, “PubChem BioAssay data set” (2004)
Several values for one entry are separate records, joined by “and”; a condition that tells them apart may be missing. Equal entries are not always repeated. Activity calls are given as the source filed them.

Key:
[1] = HEp-2 cell cytotoxicity, dose response, cytotoxicity control for RSV inhibitor project, HTS (AID 2410); type: functional; settings: human respiratory syncytial virus
[2] = biological target: Troponin, cardiac muscle (Homo sapiens, UniProt P19429+P45379+P63316); experiment: Fluorescence-based biochemical high throughput dose response assay for activators of the calcium sensitivity of cardiac Regulated Thin Filaments (RTF). [Related pubchem assays (depositor defined):AID493008, AID493018, AID504382, AID504383]; type: protein-complex assay
[3] = biological target: T1, Endoribonuclease toxin MazF (Escherichia coli K-12, UniProt P0AE70); experiment: fluorescent RNA oligo signal without MazF, dose response, counter-screen for MazEF activator project, biochemical, fluorescence, single-stranded RNase substrate (AID 588502); type: functional
T1 sequence (P0AE70 whole entry): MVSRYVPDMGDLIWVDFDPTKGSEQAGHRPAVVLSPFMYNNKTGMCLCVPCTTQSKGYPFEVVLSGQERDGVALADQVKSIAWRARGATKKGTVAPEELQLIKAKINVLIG

[4] = biological target: T1, Endoribonuclease toxin MazF; experiment: MazF toxin RNase activators, dose response, biochemical, fluorescence, single-stranded RNA substrate, uHTS hits (AID 588481); type: functional
[5] = biological target: Beta-2 adrenergic receptor (Homo sapiens, UniProt P07550); experiment: beta2AR agonists driving receptor internalization, dose response, cell-based, FAP fluorogen, flow cytometry, cherry pick 1 (AID 588763); type: functional
[6] = biological target: Serine/threonine-protein kinase pim-1 (Homo sapiens, UniProt P11309); type: functional
[7] = biological target: Glycogen synthase kinase-3 beta (Homo sapiens, UniProt P49841); type: functional;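 further: value comes from a broad kinome profiling panel, with GSK3B as the panel member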
[8] = biological target: Serine/threonine-protein kinase pim-3 (Homo sapiens, UniProt Q86V86); type: functional;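 further: value obtained as one member of a broad kinase panel profiling effort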
[9] = biological target: Serine/threonine-protein kinase BRSK1 (Homo sapiens, UniProt Q8TDC3); type: functional;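 further: measured within a kinome-wide kinase panel, with the target listed as KIAA1811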
[10] = biological target: Mitogen-activated protein kinase kinase kinase kinase 5 (Homo sapiens, UniProt Q9Y4K4); type: functional;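 further: measured as one member of a kinome-spanning kinase panel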
[11] = biological target: Mitogen-activated protein kinase kinase kinase kinase 4 (Homo sapiens, UniProt O95819); type: functional
[12] = (§1) Counterscreen for antagonists of the orexin 1 receptor (OX1R; HCRTR1): Fluorescence-based cell-based high throughput dose response assay to identify antagonists of the parental CHO cell line. [Related pubchem assays (depositor defined):AID434989, AID435008, AID463079, AID485270, AID492963, AID492964, AID492965, AID493232, AID504699, AID504701]; type: functional
[13] = biological target: T2, Orexin/Hypocretin receptor type 1 (Homo sapiens, UniProt O43613); experiment: (§2) Fluorescence-based cell-based high throughput dose response assay for antagonists of the orexin 1 receptor (OX1R; HCRTR1). [Related pubchem assays (depositor defined):AID434989, AID435008, AID463079, AID485270, AID492963, AID492964, AID492965, AID493232, AID504717, AID504718]; type: functional
T2 sequence (O43613 whole entry): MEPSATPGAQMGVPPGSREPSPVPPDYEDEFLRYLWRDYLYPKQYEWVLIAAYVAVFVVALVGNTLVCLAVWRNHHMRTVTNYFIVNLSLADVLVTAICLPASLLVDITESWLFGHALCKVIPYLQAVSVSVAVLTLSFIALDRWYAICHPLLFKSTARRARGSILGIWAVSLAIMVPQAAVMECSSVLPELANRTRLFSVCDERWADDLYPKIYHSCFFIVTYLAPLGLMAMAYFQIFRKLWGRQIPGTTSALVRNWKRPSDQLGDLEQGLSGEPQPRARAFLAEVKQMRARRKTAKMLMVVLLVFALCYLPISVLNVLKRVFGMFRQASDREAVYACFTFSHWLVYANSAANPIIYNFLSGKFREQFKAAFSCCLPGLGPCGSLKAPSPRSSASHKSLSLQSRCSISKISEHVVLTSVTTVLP

[14] = system: CHO-K1; experiment: as §1, with “Homogeneous time resolved fluorescence (HTRF)-based” for “Fluorescence-based”, “cell-based” for “cell-based high throughput”, “CHO-K1” for “CHO”; type: functional; settings: Cricetulus griseus;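 further: potency for inhibition of ATP-stimulated IP1 production as antagonists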
[15] = biological target: T2, Orexin/Hypocretin receptor type 1; experiment: as §2, with “Homogeneous Time Resolved Fluorescence (HTRF)-based” for “Fluorescence-based”; type: functional
[16] = biological target: T3, Orexin receptor type 2 (Homo sapiens, UniProt O43614); experiment: Counterscreen assay for antagonists of the orexin 1 receptor (OX1R; HCRTR1): Homogeneous Time Resolved Fluorescence (HTRF)-based cell-based dose response assay for antagonists of the orexin 2 receptor (OX2R; HCRTR2), run by assay provider.; type: functional
T3 sequence (O43614 whole entry): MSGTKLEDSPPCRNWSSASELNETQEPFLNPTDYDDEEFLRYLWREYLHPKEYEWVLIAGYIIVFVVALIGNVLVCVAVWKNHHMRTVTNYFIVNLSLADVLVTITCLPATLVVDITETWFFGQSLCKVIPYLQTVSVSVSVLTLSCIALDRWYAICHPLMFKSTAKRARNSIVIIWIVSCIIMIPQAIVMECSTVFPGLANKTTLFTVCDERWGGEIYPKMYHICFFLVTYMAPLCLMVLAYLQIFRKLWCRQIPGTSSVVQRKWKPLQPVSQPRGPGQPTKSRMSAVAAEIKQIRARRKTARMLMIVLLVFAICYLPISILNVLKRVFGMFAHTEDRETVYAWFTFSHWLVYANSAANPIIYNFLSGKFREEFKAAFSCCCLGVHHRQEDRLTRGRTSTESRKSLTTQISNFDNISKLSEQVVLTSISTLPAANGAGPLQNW

[17] = biological target: T3, Orexin receptor type 2; experiment: Counterscreen assay for antagonists of the orexin 1 receptor (OX1R; HCRTR1): Fluorescence-based cell-based dose response assay for antagonists of the orexin 2 receptor (OX2R; HCRTR2), run by assay provider.; type: functional
[18] = biological target: Peroxisome proliferator-activated receptor gamma/Nuclear receptor coactivator 2 (Homo sapiens, UniProt P37231); experiment: (§3) TR-FRET dose response biochemical High Throughput Screening assay for agonists of the steroid receptor coactivator 2 (SRC-2) recruitment by the peroxisome proliferator-activated receptor gamma (PPAR gamma): non-selective agonists. [Related pubchem assays: 1297, 1032 ]; type: functional
[19] = biological target: Peroxisome proliferator-activated receptor gamma/Nuclear receptor coactivator 3 (Homo sapiens, UniProt P37231); experiment: as §3, with “3 (SRC-3)” for “2 (SRC-2)”, “1301 (Confirmation screen.), 1048 (Primary screen.)]” for “1297, 1032 ]”; type: functional
[20] = biological target: Peroxisome proliferator-activated receptor gamma/Nuclear receptor coactivator 1 (Homo sapiens, UniProt P37231); experiment: as §3, with “1 (SRC-1)” for “2 (SRC-2)”, “assays (depositor defined):AID1300, AID1808, AID504735, AID631]” for “assays: 1297, 1032 ]”; type: protein assay
[21] = Luminescence Cell-Based Dose Response HTS to Identify Activators of Luciferase Translation or Activity in H4 […] Cells. [Related pubchem assays: 1829 (Project Summary), 1814 (Primary HTS)]; type: functional
[22] = Luminescence Cell-Based Dose Confirmation HTS to Identify Activators of 5'UTR Stem-Loop Driven Alpha-Synuclein mRNA Translation in H4 Neuroglioblastoma Cells. [Related pubchem assays: 1829 (Project Summary), 1814 (Primary HTS)]; type: functional
[23] = biological target: Phospholipase A2 (Homo sapiens, UniProt P04054); type: functional;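 further: confirmatory dose-response counterscreen on phospholipase A2, testing hits that came from an ultra-high-throughput screen for ATG4B inhibitors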
[24] = biological target: Cysteine protease ATG4B (Homo sapiens, UniProt Q9Y4P1); type: functional;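 further: Fluorescence-based dose-response confirmation assay measuring inhibition of ATG4B activity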
[25] = system: H4; experiment: Luminescence Cell-Based Dose Response HTS to Identify Activators of 5'UTR Stem-Loop Driven Prion Protein mRNA Translation in H4 Neuroglioblastoma Cells. [Related pubchem assays: 1829 (Project Summary), 1814 (Primary HTS)]; type: functional; settings: Homo sapiens

Chain of Beta-2 adrenergic receptor (P07550 whole entry): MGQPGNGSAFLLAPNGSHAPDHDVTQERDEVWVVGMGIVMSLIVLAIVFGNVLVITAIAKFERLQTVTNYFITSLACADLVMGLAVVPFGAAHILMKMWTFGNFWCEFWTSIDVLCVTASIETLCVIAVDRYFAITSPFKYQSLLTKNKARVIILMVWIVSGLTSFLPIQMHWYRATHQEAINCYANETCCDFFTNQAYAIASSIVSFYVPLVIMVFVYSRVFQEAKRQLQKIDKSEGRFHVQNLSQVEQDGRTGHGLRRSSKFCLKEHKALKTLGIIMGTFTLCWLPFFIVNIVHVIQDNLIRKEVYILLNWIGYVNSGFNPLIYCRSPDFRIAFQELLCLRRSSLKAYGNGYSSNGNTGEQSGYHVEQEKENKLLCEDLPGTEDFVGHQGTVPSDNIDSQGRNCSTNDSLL
Chain of Mitogen-activated protein kinase kinase kinase kinase 5 (Q9Y4K4 whole entry): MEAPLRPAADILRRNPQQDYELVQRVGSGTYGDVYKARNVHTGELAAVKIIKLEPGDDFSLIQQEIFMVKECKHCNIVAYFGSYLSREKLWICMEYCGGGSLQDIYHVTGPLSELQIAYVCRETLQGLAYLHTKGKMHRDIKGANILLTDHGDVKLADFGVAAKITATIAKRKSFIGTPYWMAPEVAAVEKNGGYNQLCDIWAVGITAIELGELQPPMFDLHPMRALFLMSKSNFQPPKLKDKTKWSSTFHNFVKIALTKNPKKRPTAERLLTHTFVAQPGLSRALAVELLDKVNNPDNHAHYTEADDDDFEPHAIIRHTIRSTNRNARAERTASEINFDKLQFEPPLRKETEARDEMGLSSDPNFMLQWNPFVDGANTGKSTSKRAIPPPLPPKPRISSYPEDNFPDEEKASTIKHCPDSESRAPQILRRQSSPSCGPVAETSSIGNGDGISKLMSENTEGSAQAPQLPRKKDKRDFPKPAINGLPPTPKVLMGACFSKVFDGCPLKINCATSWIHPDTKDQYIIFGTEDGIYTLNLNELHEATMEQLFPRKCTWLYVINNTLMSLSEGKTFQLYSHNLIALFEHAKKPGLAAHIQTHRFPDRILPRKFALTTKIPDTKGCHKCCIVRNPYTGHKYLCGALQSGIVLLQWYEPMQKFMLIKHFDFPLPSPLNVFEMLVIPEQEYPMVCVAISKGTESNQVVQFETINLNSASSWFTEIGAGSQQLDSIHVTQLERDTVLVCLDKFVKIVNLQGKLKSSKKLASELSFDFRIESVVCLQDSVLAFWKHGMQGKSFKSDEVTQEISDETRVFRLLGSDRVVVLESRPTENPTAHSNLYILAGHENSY
Chain of Phospholipase A2 (P04054 whole entry): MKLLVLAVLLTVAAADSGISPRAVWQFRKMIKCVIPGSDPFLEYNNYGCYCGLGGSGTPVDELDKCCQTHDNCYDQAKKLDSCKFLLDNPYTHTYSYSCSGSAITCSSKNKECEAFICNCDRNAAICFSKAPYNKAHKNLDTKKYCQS
Chain of Cysteine protease ATG4B (Q9Y4P1 whole entry): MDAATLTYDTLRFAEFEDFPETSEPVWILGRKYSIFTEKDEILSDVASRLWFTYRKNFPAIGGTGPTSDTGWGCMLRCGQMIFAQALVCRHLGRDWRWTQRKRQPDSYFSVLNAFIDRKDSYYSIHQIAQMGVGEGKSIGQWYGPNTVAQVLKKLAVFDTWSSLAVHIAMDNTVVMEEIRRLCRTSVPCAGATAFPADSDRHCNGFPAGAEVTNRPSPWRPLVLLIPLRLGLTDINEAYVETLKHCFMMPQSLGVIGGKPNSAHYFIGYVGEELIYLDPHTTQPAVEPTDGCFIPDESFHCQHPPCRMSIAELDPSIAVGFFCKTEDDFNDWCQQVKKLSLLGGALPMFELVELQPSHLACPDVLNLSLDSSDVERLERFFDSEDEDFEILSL
Chain of Mitogen-activated protein kinase kinase kinase kinase 4 (O95819 whole entry): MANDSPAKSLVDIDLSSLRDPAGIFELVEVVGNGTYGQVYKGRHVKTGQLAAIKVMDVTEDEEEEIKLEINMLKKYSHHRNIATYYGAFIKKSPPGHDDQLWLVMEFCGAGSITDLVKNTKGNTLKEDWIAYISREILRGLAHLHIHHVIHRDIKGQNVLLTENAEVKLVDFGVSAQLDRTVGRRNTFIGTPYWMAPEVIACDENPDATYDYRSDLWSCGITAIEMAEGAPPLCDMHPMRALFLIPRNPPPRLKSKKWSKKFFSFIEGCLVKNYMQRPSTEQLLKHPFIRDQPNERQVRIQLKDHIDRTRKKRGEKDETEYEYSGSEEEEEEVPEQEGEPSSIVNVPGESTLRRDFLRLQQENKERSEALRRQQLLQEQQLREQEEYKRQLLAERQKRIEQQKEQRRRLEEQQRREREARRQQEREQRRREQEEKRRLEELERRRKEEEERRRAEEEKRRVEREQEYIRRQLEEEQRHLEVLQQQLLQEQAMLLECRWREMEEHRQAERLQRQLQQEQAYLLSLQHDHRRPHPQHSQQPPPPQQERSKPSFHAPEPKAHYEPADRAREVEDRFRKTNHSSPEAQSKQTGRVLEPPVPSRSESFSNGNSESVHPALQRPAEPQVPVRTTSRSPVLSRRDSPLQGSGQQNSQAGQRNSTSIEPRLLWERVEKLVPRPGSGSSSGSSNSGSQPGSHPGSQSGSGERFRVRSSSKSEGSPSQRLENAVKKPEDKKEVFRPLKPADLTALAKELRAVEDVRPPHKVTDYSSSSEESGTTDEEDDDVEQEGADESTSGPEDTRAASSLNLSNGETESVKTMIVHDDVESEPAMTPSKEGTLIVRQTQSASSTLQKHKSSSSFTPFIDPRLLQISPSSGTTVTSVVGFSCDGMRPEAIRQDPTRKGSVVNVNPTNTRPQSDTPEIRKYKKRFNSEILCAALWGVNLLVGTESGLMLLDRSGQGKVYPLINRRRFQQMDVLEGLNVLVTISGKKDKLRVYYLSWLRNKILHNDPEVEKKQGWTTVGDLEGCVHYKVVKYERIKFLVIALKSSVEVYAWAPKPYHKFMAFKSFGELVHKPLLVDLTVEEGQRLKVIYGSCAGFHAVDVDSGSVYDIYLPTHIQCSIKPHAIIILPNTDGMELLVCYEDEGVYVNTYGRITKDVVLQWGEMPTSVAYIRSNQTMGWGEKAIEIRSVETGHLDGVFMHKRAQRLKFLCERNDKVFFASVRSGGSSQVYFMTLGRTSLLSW
Chain of Serine/threonine-protein kinase BRSK1 (Q8TDC3 whole entry): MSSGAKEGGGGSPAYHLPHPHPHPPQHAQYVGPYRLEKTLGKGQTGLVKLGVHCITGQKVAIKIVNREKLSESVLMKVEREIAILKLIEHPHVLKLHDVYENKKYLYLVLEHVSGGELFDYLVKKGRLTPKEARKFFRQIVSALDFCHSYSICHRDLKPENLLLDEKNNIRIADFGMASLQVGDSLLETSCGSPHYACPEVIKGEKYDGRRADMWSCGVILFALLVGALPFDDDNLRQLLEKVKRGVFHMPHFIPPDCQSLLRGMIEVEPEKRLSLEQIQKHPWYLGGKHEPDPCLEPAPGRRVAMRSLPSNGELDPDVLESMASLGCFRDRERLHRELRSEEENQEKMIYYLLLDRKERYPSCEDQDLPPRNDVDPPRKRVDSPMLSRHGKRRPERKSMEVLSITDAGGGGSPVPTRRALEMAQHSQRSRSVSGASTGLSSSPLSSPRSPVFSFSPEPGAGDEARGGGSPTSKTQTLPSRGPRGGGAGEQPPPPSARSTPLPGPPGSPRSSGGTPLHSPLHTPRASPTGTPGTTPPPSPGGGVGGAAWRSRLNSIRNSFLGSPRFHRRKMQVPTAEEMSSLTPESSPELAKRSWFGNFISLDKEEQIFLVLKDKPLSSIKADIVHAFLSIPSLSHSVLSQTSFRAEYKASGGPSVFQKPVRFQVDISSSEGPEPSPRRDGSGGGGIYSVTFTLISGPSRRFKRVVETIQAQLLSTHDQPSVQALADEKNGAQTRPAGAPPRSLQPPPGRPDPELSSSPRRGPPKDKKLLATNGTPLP
Chain of Glycogen synthase kinase-3 beta (P49841 whole entry): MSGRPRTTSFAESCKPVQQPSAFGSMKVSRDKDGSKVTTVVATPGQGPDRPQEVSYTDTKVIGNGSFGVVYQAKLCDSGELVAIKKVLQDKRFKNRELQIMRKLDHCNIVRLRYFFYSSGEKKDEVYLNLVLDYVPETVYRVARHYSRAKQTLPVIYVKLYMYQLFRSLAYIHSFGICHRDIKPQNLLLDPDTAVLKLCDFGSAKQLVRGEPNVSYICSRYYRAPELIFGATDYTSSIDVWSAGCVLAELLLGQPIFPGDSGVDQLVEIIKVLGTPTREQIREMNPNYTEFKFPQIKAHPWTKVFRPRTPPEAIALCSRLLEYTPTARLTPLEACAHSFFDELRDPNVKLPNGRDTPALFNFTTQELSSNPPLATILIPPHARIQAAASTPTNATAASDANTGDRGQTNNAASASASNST
Chain of Serine/threonine-protein kinase pim-1 (P11309 whole entry): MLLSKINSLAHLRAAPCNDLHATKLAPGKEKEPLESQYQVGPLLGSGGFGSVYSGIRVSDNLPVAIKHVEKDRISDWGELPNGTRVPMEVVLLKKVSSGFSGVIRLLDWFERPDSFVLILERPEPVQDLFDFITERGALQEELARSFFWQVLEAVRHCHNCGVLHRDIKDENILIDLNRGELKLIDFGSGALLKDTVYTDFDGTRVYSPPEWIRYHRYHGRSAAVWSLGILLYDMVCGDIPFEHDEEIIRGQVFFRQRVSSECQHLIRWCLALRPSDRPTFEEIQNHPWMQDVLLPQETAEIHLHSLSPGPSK

For O=[N+]([O-])c1ccc(N2CCCC2)c2ncccc12, the CC50 [1] was > 50 µM (active), the EC50 [2] was 12.1 µM (inactive) and the EC50 [3] was > 99 µM (inactive). The EC50 [4] was > 99 µM (inactive).
In the case of CCOc1ccccc1C(=O)NCC(=O)OCc1csc(CC(=O)Nc2ccc(C)cc2)n1, the EC50 [5] is reported as 228 nM (active).
In the case of O=c1cc(C(F)(F)F)c2c(-c3cccc(C(F)(F)F)c3)n[nH]c2[nH]1, the Ki [6] is reported as 5.01 µM (active), the Ki [7] is reported as 5.01 µM (active) and the Ki [8] is reported as 2 µM (active). The Ki [9] was 7.94 µM (active), the Ki [10] was 5.01 µM (active) and the Ki [11] was 5.01 µM (active).
In the case of Cc1cccc(Nc2nnc(-c3ccc(C(=O)N4C[C@H]5C[C@H](C4)c4cccc(=O)n4C5)cc3)c3ccccc23)c1, the EC50 [5] is reported as 2.12 µM (active) and 1.66 µM (active).
In the case of Cc1cccc(-c2cc3nc(-c4ccccc4)cc(N4CCC5(CC4)OCCO5)n3n2)c1, the IC50 [12] is reported as > 49.8 µM (inactive), the IC50 [13] is reported as 12.6 µM (inactive) and the IC50 [14] is reported as > 66.2 µM (inactive). For the same compound, the IC50 [15] was 5.38 µM (active), the IC50 [16] was > 50 µM (inactive) and the IC50 [17] was > 88.8 µM (inactive).
For Cc1nc(-c2ccccc2)sc1-c1nc(-c2ccccc2)ncc1S(=O)(=O)c1ccccc1, the EC50 [18] was 38.2 µM (not active), the EC50 [19] was 61.8 µM (not active) and the EC50 [20] was > 26.5 µM (inactive).
In the case of Cc1nn(Cc2c(F)c(F)c(F)c(F)c2F)c(C)c1NC(=O)c1ccc(COc2cc(Cl)ccc2Cl)cc1, the EC50 [21] is reported as 7.73 µM (active), the EC50 [22] is reported as > 120 µM (not active) and the IC50 [23] is reported as 0.27 µM (active). For the same compound, the IC50 [24] was 0.532 µM (active) and the EC50 [25] was 3.37 µM (active).
